Measurements as given in patent publication US8877785B2, “Methods and compositions for enhancing sensitivity of cytotoxic drugs with timely combinatorial therapy with carboxyamidotriazole orotate” (Tactical Therapeutics Inc, priority 2009, dated 2014).

How the values were obtained:
[1] = given in combination (CTO Q1Dx14, temozolomide Q4Dx3); MTD = dose without death and no more than 20% mean body weight loss
Source text: The purpose of the first experiment was to evaluate the tolerance of female athymic NCr-nu/nu mice to the combination treatment of 5-amino-1-(4-(4-chlorobenzoyl)-3,5-dichlorobenzyl)-1,2,3-triazole-4-carboxyamide orotate (CTO) and a cytotoxic chemotherapeutic agent selected from the group consisting of temozolomide, 5-FU, methotrexate, doxorubicin and daunorubicin.
Polyethylene glycol (PEG 400, MW 400) was purchased from Aldrich Chemistry. Deionized water was purchased from LabChem, Inc. Klucel (hydroxypropyl cellulose) was purchased from Aldrich. Saline (physiological saline solution, for animal use only) was purchased from Nova-Teck, Inc. Tween 80 (T80, polysorbate 80) was purchased from Fisher Scientific. CTO (MW 580.76) was stored at room temperature protected from light upon receipt. CTO was formulated once a week (on Days 1 and 8) at a concentration of 51.3 mg/mL in 40% PEG 400 in deionized water. Temozolomide® (temozolomide, Schering Co., 20 mg/capsule) was prepared on each day treatment by adding several drops of T80 to the powder, and then adding 0.3% Klucel in saline to yield a concentration of 4.5 mg/mL.
The study consisted of four groups of five mice per group for a total of 25 mice on Day 1. […]

[2] = tested on: human LOX IMVI melanoma xenografts; assay: Antitumor activity against SC-implanted human LOX IMVI melanoma xenografts (experiment TTI-6A); type: in vivo, mice
Source text: The purpose of the experiment TTI-6A was to evaluate the antitumor activity of CTO when administered in combination with temozolomide against subcutaneously (SC)-implanted human LOX IMVI melanoma xenografts in female, athymic NCr-nu/nu mice. Female six-week-old athymic NCr-nu/nu mice were purchased from Charles River Laboratories (Wilmington, Mass.). Human LOX IMVI melanoma cells were maintained as an ascites passage. […] The day of tumor fragment implantation was designated as Day 0.
(§1) CTO was administered to mice by exact individual animal's body weight on each day of treatment, with the injection volume being 0.1 mL/10 g body weight. temozolomide dosing formulations were administered to mice within 30 minutes of formulation by exact individual body weight on each day of treatment, with the injection volume being 0.2 mL/10 g body weight.
The study consisted of nine groups of ten mice per group. Animals in Group 1 were treated with the CTO vehicle (40% PEG 400 in deionized water) on a Q1Dx14 schedule (Days 6-19) in combination with the temozolomide vehicle (0.3% Klucel in saline), which was administered on a Q4Dx3 schedule (Days 6, 10, and 14). Animals in Groups 2 and 3 were treated with CTO at doses of 513 and 342 mg/kg/dose, respectively, on a Q1Dx14 schedule. Animals in Groups 4 and 5 were treated with temozolomide at, doses of 90 and 60 mg/kg/dose, respectively, on a Q4Dx3 schedule. Animals in Groups 6 and 7 were treated with CTO on a Q1Dx14 schedule at doses of 513 and 342 mg/kg/dose, respectively, in combination with temozolomide which was administered at a dose of 90 mg/kg/dose on a Q4Dx3 schedule. Animals in Groups 8 and 9 were treated with CTO on a Q1Dx14 schedule at doses of 513 and 342 mg/kg/dose, respectively, in combination with temozolomide which was administered at a dose of 60 mg/kg/dose on a Q4Dx3 schedule.
The SC tumors were measured and the animals were weighed two times a week. Tumor volume was determined by the formula for an ellipsoid sphere: L×W^2/2=mm^3, where L and W refer to the larger and smaller perpendicular dimensions collected at each measurement. The experiment was terminated on Day 35.
Parameters Evaluated—Number of nonspecific deaths, number of complete tumor regressions, number of tumor-free survivors on Day 35, and the median time for the tumors to reach four tumor mass doublings were determined. Comparison of the median tumor weight in the treatment groups to the median tumor weight in the control group (T/C×100%) on Day 19 (the last day of treatment with CTO and the last day of data collection when mice in the control group were still alive) was used for an additional evaluation of the antitumor efficacy of the combination treatments. […] FIG. 1.

[3] = Body weight loss and deaths in LOX IMVI tumor-bearing athymic NCr-nu/nu mice (experiment TTI-6A); type: in vivo
Source text: The purpose of the experiment TTI-6A was to evaluate the antitumor activity of CTO when administered in combination with temozolomide against subcutaneously (SC)-implanted human LOX IMVI melanoma xenografts in female, athymic NCr-nu/nu mice. Female six-week-old athymic NCr-nu/nu mice were purchased from Charles River Laboratories (Wilmington, Mass.). Human LOX IMVI melanoma cells were maintained as an ascites passage. Each mouse was implanted SC near the right flank with one million (1×10^6) of the LOX IMVI human melanoma cell from an in vivo passage using a 23 g needle. The day of tumor fragment implantation was designated as Day 0. Individual tumors of 90 animals grew to 126-198 mg in weight (126-198 mm^3 in size) on Day 6 after tumor implantation (Jul. 20, 2011), the day of treatment initiation. Those animals selected with tumors in the proper size range were assigned to nine treatment groups so that the mean tumor weights in all groups on Day 6 were as close to each other as possible (mean tumor weights being 165 or 166 mg, median tumor weights ranging from 162 to 176 mg).
as §1
The study consisted of nine groups of ten mice per group. […]
The SC tumors were measured and the animals were weighed two times a week. Tumor volume was determined by the formula for an ellipsoid sphere: L×W^2/2=mm^3, where L and W refer to the larger and smaller perpendicular dimensions collected at each measurement. […]
Parameters Evaluated—Number of nonspecific deaths, number of complete tumor regressions, number of tumor-free survivors on Day 35, and the median time for the tumors to reach four tumor mass doublings were determined. […]

[4] = Group 4: temozolomide 90 mg/kg/dose oral Q4Dx3 alone
[5] = Group 5: temozolomide 60 mg/kg/dose oral Q4Dx3 alone

| Compound | maximum tolerated dose (MTD) [1] | inhibition of the growth of the human LOX IMVI melanoma xenografts (in words) ([2]; CTO 513 or 342 mg/kg/dose oral for fourteen consecutive days) | median tumor growth delay ([2]; Group 2: CTO 513 mg/kg/dose Q1Dx14 alone) [days] | T/C value (median tumor weight treated/control x100%) on Day 19 ([2]; Group 2: CTO 513 mg/kg/dose oral Q1Dx14 alone) [%] | median tumor growth delay ([2]; Group 3: CTO 342 mg/kg/dose Q1Dx14 alone) [days] | T/C value (median tumor weight treated/control x100%) on Day 19 ([2]; Group 3: CTO 342 mg/kg/dose oral Q1Dx14 alone) [%] | maximum mean body weight loss [3, 4] [%] | maximum mean body weight loss [3, 5] [%] | maximum mean body weight loss ([3]; Groups 4 and 5: temozolomide 90 and 60 mg/kg/dose oral Q4Dx3 alone, both groups) [g] | delay in the growth of the median tumor ([2]; Group 4: temozolomide 90 mg/kg/dose Q4Dx3 alone) [days] | T/C value (median tumor weight treated/control x100%) on Day 19 [2, 4] [%] | median time for the tumor to reach four tumor mass doublings [2, 4] [days] | delay in the growth of the median tumor ([2]; Group 5: temozolomide 60 mg/kg/dose Q4Dx3 alone) [days] | T/C value (median tumor weight treated/control x100%) on Day 19 [2, 5] [%] | median time for the tumor to reach four tumor mass doublings [2, 5] [days] |
| --- | --- | --- | --- | --- | --- | --- | --- | --- | --- | --- | --- | --- | --- | --- | --- |
| 5-amino-1-(4-(4-chlorobenzoyl)-3,5-dichlorobenzyl)-1,2,3-triazole-4-carboxyamide orotate [CTO] | above 513 mg/kg/dose | measurable inhibition | 3.1 | 65 | 1.6 | 70 | – | – | – | – | – | – | – | – | – |
| Cn1nnc2c(C(N)=O)ncn2c1=O [temozolomide] | > 90 mg/kg/dose | – | – | – | – | – | 7 | 7 | 1.6 to 1.8 | 8.5 | 36 | 17.2 | 3.6 | 57 | 12.3 |
